This is an account of results in BindingDB's records for doi:10.1021/jm061299k (Bayer Healthcare Pharmaceuticals, 2007).

The target in one assay is T1, Peroxisome proliferator-activated receptor delta (Homo sapiens, UniProt Q03181).
T1 sequence (Q03181 whole entry): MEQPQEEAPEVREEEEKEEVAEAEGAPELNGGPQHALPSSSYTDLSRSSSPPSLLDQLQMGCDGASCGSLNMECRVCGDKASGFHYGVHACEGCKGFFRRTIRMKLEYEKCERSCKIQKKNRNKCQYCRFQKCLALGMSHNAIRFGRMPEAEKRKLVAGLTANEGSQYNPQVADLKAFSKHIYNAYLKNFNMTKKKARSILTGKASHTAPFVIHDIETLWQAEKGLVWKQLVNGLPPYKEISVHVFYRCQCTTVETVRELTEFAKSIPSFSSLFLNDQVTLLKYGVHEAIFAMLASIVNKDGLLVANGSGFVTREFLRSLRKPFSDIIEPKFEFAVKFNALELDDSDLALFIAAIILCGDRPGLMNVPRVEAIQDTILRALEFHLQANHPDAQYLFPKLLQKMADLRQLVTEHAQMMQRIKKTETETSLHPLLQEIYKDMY
Put plainly: PPAR FRET Assay. The conditions noted are these: 25 °C. The method, then: (§1) Activity was assessed by measuring the human PPAR ligand binding domain with the co-activator protein. Europium labeled anti-GST antibody, streptavidin-labeled APC, biotin-labeled co-activator protein, and PPAR-GST were incubated at room temperature in buffer in the presence or absence of test compound.
Regarding `CCCc1cc(-c2nc3c(s2)CCCO3)ccc1OCCCOc1ccc2c(c1)CC[C@H]2CC(=O)O` [2-[(1S)-5-[3-(2-propyl-4-{5H,6H,7H-pyrano[2,3-d][1,3]thiazol-2-yl}phenoxy)propoxy]-2,3-dihydro-1H-inden-1-yl]acetic acid], the half-maximal effective concentration (EC50) – broadly, the concentration at which the effect is half-maximal – was found to be 0.004 µM.

The next assay has as its target T2, Peroxisome proliferator-activated receptor alpha (Homo sapiens, UniProt Q07869).
T2 sequence (Q07869 whole entry): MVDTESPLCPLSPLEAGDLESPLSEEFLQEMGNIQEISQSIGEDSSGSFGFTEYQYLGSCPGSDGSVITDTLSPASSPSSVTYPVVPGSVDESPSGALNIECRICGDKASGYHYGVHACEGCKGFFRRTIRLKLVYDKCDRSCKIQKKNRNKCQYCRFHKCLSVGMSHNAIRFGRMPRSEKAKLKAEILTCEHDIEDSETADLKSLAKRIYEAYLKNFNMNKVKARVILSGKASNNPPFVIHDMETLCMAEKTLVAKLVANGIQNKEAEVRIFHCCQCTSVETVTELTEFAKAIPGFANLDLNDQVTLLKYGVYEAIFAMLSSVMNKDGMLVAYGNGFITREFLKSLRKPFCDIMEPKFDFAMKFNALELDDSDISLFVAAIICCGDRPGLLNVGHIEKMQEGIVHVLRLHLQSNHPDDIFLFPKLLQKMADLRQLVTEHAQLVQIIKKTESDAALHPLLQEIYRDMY
Put plainly: PPAR FRET Assay. Conditions: 25 °C. How it is done:
as §1
`CCCc1cc(-c2nc3c(s2)CCCO3)ccc1OCCCOc1ccc2c(c1)CC[C@H]2CC(=O)O` [2-[(1S)-5-[3-(2-propyl-4-{5H,6H,7H-pyrano[2,3-d][1,3]thiazol-2-yl}phenoxy)propoxy]-2,3-dihydro-1H-inden-1-yl]acetic acid] yielded an EC50 of 0.101 µM.

Another assay concerns the target Peroxisome proliferator-activated receptor gamma (Mus musculus) (UniProt P37238). Put plainly: PPARgamma activity was assessed by the cell-based insulin receptor binding assay (IRBA) in mouse 3T3-L1 cells, measuring the increase in the number of insulin receptors.
Conditions: not given
The compound `O=C(O)C[C@@H]1CCc2cc(OCCCOc3ccccc3)ccc21` [2-[(1S)-5-(3-phenoxypropoxy)-2,3-dihydro-1H-inden-1-yl]acetic acid] came in with a concentration for a half-maximal effect (EC50) above 10 µM. Still for that read-out and setting: for `COc1cc(-c2nc(C)c(C(=O)N(C)C)s2)ccc1OCCCOc1ccc2c(c1)CC[C@H]2CC(=O)O` [2-[(1S)-5-(3-{4-[5-(dimethylcarbamoyl)-4-methyl-1,3-thiazol-2-yl]-2-methoxyphenoxy}propoxy)-2,3-dihydro-1H-inden-1-yl]acetic acid] the value was 0.312 µM. In the case of `CCCc1cc(-c2nc(C)c(C(=O)N(C)C)s2)ccc1OCCCOc1ccc2c(c1)CC[C@H]2CC(=O)O` [2-[(1S)-5-(3-{4-[5-(dimethylcarbamoyl)-4-methyl-1,3-thiazol-2-yl]-2-propylphenoxy}propoxy)-2,3-dihydro-1H-inden-1-yl]acetic acid], the concentration giving a half-maximal response (EC50) is 0.02 µM. Same read-out and setting: as for `O=C(O)C[C@@H]1CCc2cc(OCCCOc3ccc4cnoc4c3)ccc21` [2-[(1S)-5-[3-(1,2-benzoxazol-6-yloxy)propoxy]-2,3-dihydro-1H-inden-1-yl]acetic acid], the figure is above 10 µM.

Regarding `O=C(O)C[C@@H]1CCc2cc(OCCCOc3ccc4ncoc4c3)ccc21` [2-[(1S)-5-[3-(1,3-benzoxazol-6-yloxy)propoxy]-2,3-dihydro-1H-inden-1-yl]acetic acid], the EC50 is above 10 µM. Still for that read-out and setting: as for `O=C(O)C[C@@H]1CCc2cc(OCCCOc3ccc4cc[nH]c4c3)ccc21` [2-[(1S)-5-[3-(1H-indol-6-yloxy)propoxy]-2,3-dihydro-1H-inden-1-yl]acetic acid], the figure is above 10 µM; as for `Cc1ccc(OCCCOc2ccc3c(c2)CC[C@H]3CC(=O)O)cc1C` [2-[(1S)-5-[3-(3,4-dimethylphenoxy)propoxy]-2,3-dihydro-1H-inden-1-yl]acetic acid], above 10 µM; as for `CCCc1c(OCCCOc2ccc3c(c2)CC[C@H]3CC(=O)O)ccc2c1ccn2C` [2-[(1S)-5-{3-[(1-methyl-4-propyl-1H-indol-5-yl)oxy]propoxy}-2,3-dihydro-1H-inden-1-yl]acetic acid], above 10 µM.
